Tests used:
Rattus norvegicus [1] = assay: Reduction in total plasma cholesterol level in cholesterol-fed Sprague-Dawley rat at 0.2 mg/kg, ip after 24 hrs; assay type: functional; parameters: scale not given: the % may be the effect or the level left; conditions: route intraperitoneal
[2] = molecular target: T1, Thyroid hormone receptor alpha (Homo sapiens, UniProt P10827)
T1 sequence (P10827 whole entry): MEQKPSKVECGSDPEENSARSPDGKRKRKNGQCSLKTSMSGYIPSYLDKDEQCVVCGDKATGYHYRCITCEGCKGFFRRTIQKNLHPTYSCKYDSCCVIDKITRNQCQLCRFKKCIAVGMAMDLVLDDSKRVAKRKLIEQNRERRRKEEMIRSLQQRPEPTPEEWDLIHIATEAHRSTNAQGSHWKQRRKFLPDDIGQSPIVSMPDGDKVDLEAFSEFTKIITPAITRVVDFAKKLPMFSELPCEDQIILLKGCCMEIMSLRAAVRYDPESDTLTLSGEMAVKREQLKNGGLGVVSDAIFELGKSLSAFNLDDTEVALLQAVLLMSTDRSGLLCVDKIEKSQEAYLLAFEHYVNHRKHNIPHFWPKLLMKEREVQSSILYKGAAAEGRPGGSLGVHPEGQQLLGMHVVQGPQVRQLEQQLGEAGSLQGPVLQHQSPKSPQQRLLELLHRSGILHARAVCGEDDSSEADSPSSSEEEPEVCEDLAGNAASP
Description: Displacement of [125I]3,5,3'-triiodo-L-thyronine from His-tagged human recombinant TRalpha1 by scintillation proximity assay

[3] = molecular target: T2, Thyroid hormone receptor beta (Homo sapiens, UniProt P10828)
T2 sequence (P10828 whole entry): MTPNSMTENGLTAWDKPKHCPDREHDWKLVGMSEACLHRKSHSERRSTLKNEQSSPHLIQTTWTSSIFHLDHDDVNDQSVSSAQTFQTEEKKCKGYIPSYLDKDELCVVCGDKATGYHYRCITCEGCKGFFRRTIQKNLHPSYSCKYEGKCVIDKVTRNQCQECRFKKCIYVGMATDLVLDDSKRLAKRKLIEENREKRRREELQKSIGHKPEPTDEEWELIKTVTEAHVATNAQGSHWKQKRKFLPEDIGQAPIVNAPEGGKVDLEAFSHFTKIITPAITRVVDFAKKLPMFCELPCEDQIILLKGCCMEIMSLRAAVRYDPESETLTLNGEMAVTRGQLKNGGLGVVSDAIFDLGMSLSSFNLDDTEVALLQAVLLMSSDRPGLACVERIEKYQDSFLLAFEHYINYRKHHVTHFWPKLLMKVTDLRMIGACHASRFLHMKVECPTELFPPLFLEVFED
Description: Displacement of [125I]3,5,3'-triiodo-L-thyronine His-tagged human recombinant TRbeta1 by scintillation proximity assay

Rattus norvegicus [4] = assay: Reduction in total plasma cholesterol level in cholesterol-fed Sprague-Dawley rat at 0.5 mg/kg, po after 24 hrs; assay type: functional; parameters: scale not given: the % may be the effect or the level left
Rattus norvegicus [5] = assay: Reduction in total plasma cholesterol level in cholesterol-fed orally dosed Sprague-Dawley rat after 24 hrs; assay type: functional; conditions: po
[6] = Metabolic stability in human liver S9 fraction assessed as activation rate at 100 uM after 1 hr; assay type: ADME, subcellular; conditions: s9, 1 h
[7] = Metabolic stability in human S9 liver fraction assessed as monoacid levels at 100 uM after 1 hr; assay type: ADME, subcellular; conditions: s9, 1 h
[8] = Metabolic stability in human S9 liver fraction assessed as prodrug remaining at 100 uM after 1 hr; assay type: ADME, subcellular; conditions: s9, 1 h
Rattus norvegicus [9] = assay: Reduction in total plasma cholesterol level in cholesterol-fed orally dosed Sprague-Dawley rat after 24 hrs relative to control; assay type: functional; parameters: scale not given: the % may be the effect or the level left
Rattus norvegicus [10] = assay: Agonist activity at thyroid hormone receptor in Sprague-Dawley rat assessed as liver mGPDH activity at 1 mg/kg administered through osmotic pump infusion per ug protein; assay type: functional
Rattus norvegicus [11] = assay: Agonist activity at thyroid hormone receptor in Sprague-Dawley rat assessed as heart mGPDH activity at 1 mg/kg administered through osmotic pump infusion per ug protein; assay type: functional

**Q.** For `CCC(C)c1cc(Cc2c(C)cc(OCP(=O)(O)O)cc2C)ccc1O` (stereo not given), which Activity (Rattus norvegicus [1]) is on record?
**A.** 20.1%

**Q.** What about the Ki [2] of the same molecule?
**A.** 30.5 nM

**Q.** For `CC(C)c1cc(Oc2c(Br)cc(OCP(=O)(O)O)cc2Br)ccc1O`, which Activity (Rattus norvegicus [1]) is on record?
**A.** 42.6%

**Q.** With `CC(C)c1cc(Oc2c(I)cc(OCP(=O)(O)O)cc2I)ccc1O` as the molecule, how does the Activity (Rattus norvegicus [1]) read?
**A.** 44.7%

**Q.** With `Cc1cc(OCP(=O)(O)O)cc(C)c1Oc1ccc(O)c(C(C)C)c1` as the molecule, how does the Ki [2] read?
**A.** 183 nM

**Q.** What about the Ki [3] of the same molecule?
**A.** 25.4 nM

**Q.** Which Activity (Rattus norvegicus [4]) does the source give for `CCOC(=O)OCOP(=O)(COc1cc(C)c(Cc2ccc(O)c(C(C)C)c2)c(C)c1)OCOC(=O)OCC` here?
**A.** 24%

**Q.** What does the source list for `CCOC(=O)CNP(=O)(COc1cc(C)c(Cc2ccc(O)c(C(C)C)c2)c(C)c1)NCC(=O)OCC`?
**A.** Activity (Rattus norvegicus [4]): 42%; ED50 (Rattus norvegicus [5]): 0.1 mg/kg; Stability [6]: 73 pmol/min/mg; Stability [7]: 6%; Stability [8]: 70%; Activity (Rattus norvegicus [9]): 48%

**Q.** Which Activity (Rattus norvegicus [4]) does the source give for `CCOC(=O)[C@H](C)NP(=O)(COc1cc(C)c(Cc2ccc(O)c(C(C)C)c2)c(C)c1)N[C@@H](C)C(=O)OCC` here?
**A.** 42%

**Q.** Which Activity (Rattus norvegicus [4]) does the source give for `CCOC(=O)C(C)(C)NP(=O)(COc1cc(C)c(Cc2ccc(O)c(C(C)C)c2)c(C)c1)NC(C)(C)C(=O)OCC` here?
**A.** 23%

**Q.** Which Activity (Rattus norvegicus [10]) does the source give for `O=P(O)(O)Cc1cc(I)c(Oc2ccc(O)c(I)c2)c(I)c1` here?
**A.** 5.38 U/min

**Q.** And the Activity (Rattus norvegicus [11])?
**A.** 1.74 U/min

**Q.** Which Activity (Rattus norvegicus [4]) does the source give for `CC(=O)SCCOP(=O)(COc1cc(C)c(Cc2ccc(O)c(C(C)C)c2)c(C)c1)OCCSC(C)=O` here?
**A.** 20%

**Q.** Which Activity (Rattus norvegicus [4]) does the source give for `Cc1cc(OCP(=O)(OCOC(=O)OC(C)C)OCOC(=O)OC(C)C)cc(C)c1Cc1ccc(O)c(C(C)C)c1` here?
**A.** 24%

**Q.** With `Cc1cc(NC(=O)C(=O)O)cc(C)c1Oc1ccc(O)c(C(C)C)c1` as the molecule, how does the Ki [2] read?
**A.** 0.51 nM

**Q.** What about the Ki [3] of the same molecule?
**A.** 0.47 nM

**Q.** Which results are given for `Cc1cc(NCP(=O)(O)O)cc(C)c1Cc1ccc(O)c(C(C)C)c1`?
**A.** Activity (Rattus norvegicus [1]): 32.3%; Ki [2]: 28.4 nM; Ki [3]: 9.1 nM

**Q.** For `CCc1cc(Cc2c(C)cc(OCP(=O)(O)O)cc2C)ccc1O`, which Activity (Rattus norvegicus [1]) is on record?
**A.** 7.5%

**Q.** Which results are given for `CC(C)c1cc(Oc2c(Br)cc(CCP(=O)(O)O)cc2Br)ccc1O`?
**A.** Activity (Rattus norvegicus [1]): 34.5%; Ki [2]: 42.1 nM; Ki [3]: 2.5 nM

**Q.** For `CCOC(=O)[C@H](Cc1ccccc1)NP(=O)(COc1cc(C)c(Cc2ccc(O)c(C(C)C)c2)c(C)c1)N[C@@H](Cc1ccccc1)C(=O)OCC`, which Activity (Rattus norvegicus [4]) is on record?
**A.** 0%

**Q.** With `CCOC(=O)[C@@H](NP(=O)(COc1cc(C)c(Cc2ccc(O)c(C(C)C)c2)c(C)c1)N[C@H](C(=O)OCC)C(C)C)C(C)C` as the molecule, how does the Activity (Rattus norvegicus [4]) read?
**A.** 13%

Source: ChEMBL document CHEMBL1152303, “Synthesis and biological evaluation of a series of liver-selective phosphonic acid thyroid hormone receptor agonists and their prodrugs” (J Med Chem, 2008)
